In ChEMBL document CHEMBL5505972, “Design, synthesis and evaluation of C-5 substituted pyrrolopyridine derivatives as potent Janus Kinase 1 inhibitors with excellent selectivity” (Eur J Med Chem, 2024) one finds IC50 data, which are given here for 21 compounds.

Each structure is given as a SMILES string.

For this assay, the target named is Non-receptor tyrosine-protein kinase TYK2 (Homo sapiens, UniProt P29597).
Sequence of Non-receptor tyrosine-protein kinase TYK2 (P29597 whole entry): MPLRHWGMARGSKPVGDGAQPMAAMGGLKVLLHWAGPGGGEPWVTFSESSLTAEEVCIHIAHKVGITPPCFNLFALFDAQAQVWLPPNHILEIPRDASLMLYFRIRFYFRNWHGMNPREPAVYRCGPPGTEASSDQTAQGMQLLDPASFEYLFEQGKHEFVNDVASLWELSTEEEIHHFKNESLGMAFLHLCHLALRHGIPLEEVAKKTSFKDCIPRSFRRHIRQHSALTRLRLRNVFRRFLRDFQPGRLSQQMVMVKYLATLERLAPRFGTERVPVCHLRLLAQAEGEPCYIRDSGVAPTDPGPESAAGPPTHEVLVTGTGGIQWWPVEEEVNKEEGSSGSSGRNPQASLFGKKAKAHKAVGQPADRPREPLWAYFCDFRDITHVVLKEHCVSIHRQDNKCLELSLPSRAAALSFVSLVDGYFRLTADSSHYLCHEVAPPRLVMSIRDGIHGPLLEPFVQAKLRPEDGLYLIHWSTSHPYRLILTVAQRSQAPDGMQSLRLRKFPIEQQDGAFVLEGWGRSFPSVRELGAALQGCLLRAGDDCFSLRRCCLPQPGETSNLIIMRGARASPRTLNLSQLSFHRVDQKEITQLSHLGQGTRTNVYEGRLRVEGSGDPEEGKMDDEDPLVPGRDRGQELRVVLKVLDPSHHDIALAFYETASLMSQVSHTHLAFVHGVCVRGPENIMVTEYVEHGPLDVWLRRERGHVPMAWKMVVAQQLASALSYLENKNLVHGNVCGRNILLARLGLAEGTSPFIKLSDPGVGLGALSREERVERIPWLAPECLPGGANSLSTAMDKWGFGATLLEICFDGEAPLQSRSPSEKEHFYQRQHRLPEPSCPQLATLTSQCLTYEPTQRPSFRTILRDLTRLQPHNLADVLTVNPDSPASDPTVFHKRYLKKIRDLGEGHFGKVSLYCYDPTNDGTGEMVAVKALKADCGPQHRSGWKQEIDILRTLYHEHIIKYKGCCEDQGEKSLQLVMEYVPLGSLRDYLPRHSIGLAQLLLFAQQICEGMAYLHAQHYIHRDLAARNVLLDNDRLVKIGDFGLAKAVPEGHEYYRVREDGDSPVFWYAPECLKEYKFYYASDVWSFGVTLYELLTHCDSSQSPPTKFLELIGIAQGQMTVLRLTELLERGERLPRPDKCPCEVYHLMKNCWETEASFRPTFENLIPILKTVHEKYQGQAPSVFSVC
Description: Inhibition of TYK2 (unknown origin) using GFP-STAT1 as substrate incubated for 1 hrs by TR-FRET assay
In turn, `N#Cc1ccccc1CN1CCC(Nc2c(-c3cn[nH]c3)cnc3[nH]ccc23)CC1` gave an IC50 of 0.0041 µM.
Take `N#Cc1ccccc1CN1CCC(Nc2c(-c3cc[nH]n3)cnc3[nH]ccc23)CC1`: the IC50 was found to be 0.0013 µM. Against the preceding compound, the IC50 is about 3.2-fold lower.
In the case of `Clc1ccccc1CN1CCC(Nc2c(-c3cn[nH]c3)cnc3[nH]ccc23)CC1` it was over 10 µM; in that of `N#Cc1ccc(CN2CCC(Nc3c(-c4cc[nH]n4)cnc4[nH]ccc34)CC2)cc1`, over 10 µM; in that of `Clc1ccc(CN2CCC(Nc3c(-c4cn[nH]c4)cnc4[nH]ccc34)CC2)cc1`, over 10 µM.
Compound `COc1cccc(CN2CCC(Nc3c(-c4cc[nH]n4)cnc4[nH]ccc34)CC2)c1` had an IC50 of over 10 µM.
For `Clc1cccc(CN2CCC(Nc3c(-c4cn[nH]c4)cnc4[nH]ccc34)CC2)c1`, the IC50 is over 10 µM.
In the case of `COc1cccc(CN2CCC(Nc3c(-c4cc[nH]c4)cnc4[nH]ccc34)CC2)c1` it was 0.504 µM; in that of `COc1cccc(CN2CCC(Nc3c(-c4cn[nH]c4)cnc4[nH]ccc34)CC2)c1`, over 10 µM.
For the compound `Clc1cccc(CN2CCC(Nc3c(-c4cc[nH]n4)cnc4[nH]ccc34)CC2)c1`, the IC50 is over 10 µM.
In the case of `N#Cc1ccccc1CN1CCC(Nc2c(-c3cc[nH]c3)cnc3[nH]ccc23)CC1` it was 4.15 µM.
As to `Clc1cccc(CN2CCC(Nc3c(-c4cc[nH]c4)cnc4[nH]ccc34)CC2)c1`, the half-inhibitory concentration (IC50) is over 10 µM.
For `Clc1ccccc1CN1CCC(Nc2c(-c3cc[nH]c3)cnc3[nH]ccc23)CC1`, the IC50 was over 10 µM.
In the case of `Clc1ccc(CN2CCC(Nc3c(-c4cc[nH]c4)cnc4[nH]ccc34)CC2)cc1` it was over 10 µM.
As for `N#Cc1ccc(CN2CCC(Nc3c(-c4cc[nH]c4)cnc4[nH]ccc34)CC2)cc1`, the figure is over 10 µM; as for `N#Cc1ccc(CN2CCC(Nc3c(-c4cn[nH]c4)cnc4[nH]ccc34)CC2)cc1`, over 10 µM.
The compound `Clc1ccccc1CN1CCC(Nc2c(-c3cc[nH]n3)cnc3[nH]ccc23)CC1` came in with an IC50 of over 10 µM.
As to `Clc1ccc(CN2CCC(Nc3c(-c4cc[nH]n4)cnc4[nH]ccc34)CC2)cc1`, the concentration for half-maximal inhibition (IC50) is over 10 µM.
In turn, `N#Cc1cccc(CN2CCC(Nc3c(-c4cn[nH]c4)cnc4[nH]ccc34)CC2)c1` came in with an IC50 of over 10 µM.
As for `N#Cc1cccc(CN2CCC(Nc3c(-c4cc[nH]n4)cnc4[nH]ccc34)CC2)c1`, the 50% inhibitory concentration (IC50) was over 10 µM.
In turn, `N#Cc1cccc(CN2CCC(Nc3c(-c4cc[nH]c4)cnc4[nH]ccc34)CC2)c1` had a 50% inhibitory concentration (IC50) of over 10 µM.

A word on the IC50: it is the concentration at which inhibition is half-maximal. Lower therefore signals inhibition by little substance.
